# Tests used:
# Format in all cases: in vivo, mouse
# [1] = system: mdr1a^−/− mice; assay: mdr1a−/− mice given chlorinated drinking water as IBD model: clinical signs, body weight, colon and caecum weights; details: for Body weight (Mean ± s.e.m.): end of study; for Growth rate (Mean ± s.e.m.): over study period
# Text: Forty male mdr1a^−/− mice (strain FVB.129P2-Pgy3^tm1 N7) and six control male mice (mdr1a^+/+) from the same genetic background (FVB; strain FVB/NTac) (6-8 weeks old) were obtained from Taconic Farms (U.S.A). Mice were individually housed in solid bottom cages containing autoclaved Bee Kay bedding from Bantin & Kingman (U.K.) with the addition of Envirodri, a nesting material made from virgin paper, free from deodorising chemicals, to provide enrichment. Mice were fed on RAT & Mouse No 1 maintenance diet (RMI (E) SQC) (Special Diet services, Witham, Essex, U.K.) on arrival at Pfizer. For this study we used bottled water and Klortabs (5 ppm) (Arrowmight Biosciences, U.K.) to eliminate the possibility of water borne spreading of bacterial pathogens and to provide a water supply with constant levels of chlorine. Water was changed twice a week. This study was carried out in accordance with UK legislation and approved by Pfizer's internal ethical review process.
# Prior to commencing the study, all mice (40 mdr1a^−/− and 6 mdr1a^+/+) acclimatised for 14 days. […] A scoring system was devised with different weightings for different clinical signs (Table 1). The intention was that the score should reflect the severity of the colitis.
# (§1) Following the acclimatisation period, mdr1a^−/− mice with mild and moderate disease scores (mild disease (0-3) was defined by absence of gain or mild body weight loss (<0.5 g) and no other symptoms, whereas moderate disease (4-10) was defined by similar symptoms as a previous group but with soft faeces or greater loss in body weight (>20%) were randomised into 4 groups and dosed subcutaneously (s.c.) with vehicle (water, n=8) or dexamethasone (0.05 mg/kg, n=9; 0.3 mg/kg, n=8 or 2 mg/kg, n=8) daily for 7 days. The 6 mdr1a^+/+ mice received vehicle (water). During the study period, one mouse from the group treated with 0.3 mg/kg dexamethasone was found dead and two were euthanised (one from the vehicle-treated group and one from the group treated with 0.05 mg/kg dexamethasone). At the end of the study all mice were euthanased. The colon and caecum from each mouse was removed and weighed. Each colon was then divided longitudinally so that one section could be processed for histological analysis and the other for cytokine measurement (see below).
# (§2) Data were analysed for the 29 mdr1a^−/− and 6 mdr1a^+/+ mice, which completed the study. Differences between vehicle treated mdr1a^−/− and mdr1a^+/+ mice were analysed using a two sample t-test (assuming equal variance for IFN-γ, growth rate in the acclimatisation period and final weight, and unequal variance for IL-8, colon weight, caecum weight, colon to body weight ratio, caecum to body weight ratio and growth rate during the study period). The effects of dexamethasone treatment were analysed using analysis of variance (ANOVA) allowing for culling group.
# [2] = system: colon/rectum of mdr1a^−/− mice; assay: Histological grading of colitis severity (score 0-4); details: for Colitis severity score graded histologically (Mean ± s.e.m.): scale 0-4
# Protocol: as §1
# The animals were necropsied. The colon/rectum and caecum were weighed and colon/rectum, caecum, ileum, jejunum, duodenum, stomach, mesenteric nodes, thymus, kidney, spleen were sampled and fixed in 10% buffered formalin solution. The colon/rectum and ileum were prepared in a “Swiss roll” technique (Moolenbeek, C. & Ruitenberg E. J. (1981) Lab Anim 15(1):57-9) to evaluate their whole longitudinal section one slide. Tissues were processed routinely in an automatic tissue processor, embedded in paraffin, sectioned at 4-6 μm, stained with hematoxylin and eosin (HE), and examined histologically. The colitis was graded from 0 (no significant findings) to 4 (severe proliferative and ulcerative inflammation) according to the extent of the findings and severity of mucosal changes (Table 2) by a blinded observer. In addition, the mucosal height of the whole colon/rectum were assessed about every 100 μm with a standard interactive microcomputer-assisted image analysis system.
# Colitis severity score is an ordered categorical measure graded on a scale of 0-4. This type of data is generally analysed using a proportional odds model, however due to the small sample size this was not appropriate and ANOVA was used. This makes the assumption of having normally distributed data, which although we had categorical data, seemed to hold approximately true. All analysis was carried out using Genstat 5 Release 4.2 for Windows.
# [3] = system: IL-8; assay: IL-8 levels in homogenised colon samples (ELISA); details: mdr1a−/− mice
# Protocol: as §1
# (§3) Each individual colon sample was homogenised three times for 30 seconds at 4° C. in 3ml of ice-cold Krebs' solution (Sigma Chemical Co. U.K.). Samples were centrifuged for 15 min at 35,000 g (4° C.) and supernatants were removed. IL-8 and IFN-γ levels were then measured by ELISA kits (R&D systems, U.K.). The detection limits of these kits were 31.2-2000 pg/ml. Protein levels was assayed in supernatants using the method described by Bradford (Bradford, M. (1976) Analyt. Biochem. 72, 248-254), utilising Bradford Reagent (Sigma).
# as §2
# [4] = system: IFN-γ; assay: IFN-γ levels in homogenised colon samples (ELISA); details: mdr1a−/− mice
# Protocol: as §1, §3, §2
# [5] = 0.05 mg/kg s.c. daily for 7 days
# [6] = 0.3 mg/kg s.c. daily for 7 days
# [7] = lower doses (0.05 and 0.3 mg/kg s.c.)
smiles,measurement,setting,value
C[C@@H]1C[C@H]2[C@@H]3CCC4=CC(=O)C=C[C@]4(C)[C@@]3(F)[C@@H](O)C[C@]2(C)[C@@]1(O)C(=O)CO [dexamethasone],Clinical score (Mean ± s.e.m.),[1]; [5],56 ± 8.9
same,Body weight (Mean ± s.e.m.),[1]; [5],22.2 ± 0.77 g
same,Growth rate (Mean ± s.e.m.),[1]; [5],-0.427 ± 0.099 g/day
same,Clinical score (Mean ± s.e.m.),[1]; [6],37 ± 8.9
same,Body weight (Mean ± s.e.m.),[1]; [6],22.6 ± 0.77 g
same,Growth rate (Mean ± s.e.m.),[1]; [6],-0.260 ± 0.099 g/day
same,Clinical score (Mean ± s.e.m.),[1]; 2 mg/kg s.c. daily for 7 days,32 ± 8.3
same,Body weight (Mean ± s.e.m.),[1]; 2 mg/kg s.c. daily for 7 days,22.7 ± 0.72 g
same,Growth rate (Mean ± s.e.m.),[1]; 2 mg/kg s.c. daily for 7 days,-0.271 ± 0.093 g/day
same,Colon to body weight ratio,"[1]; 2 mg/kg s.c. daily for 7 days, vehicle 3.0±0.28, P=0.017",2.1±0.26
same,Absolute colon weight,"[1]; 2 mg/kg s.c. daily for 7 days, vehicle 691±52 mg, P<0.01",456 ± 48 mg
same,Effect on overall clinical scores of colitis,[1]; 0.05-2 mg/kg s.c.,no effect
same,Effect on final body weight,[1]; any of the doses used,no significant effect
same,Effect on growth rate,[1]; any of the doses used,no significant effect
same,Effect on absolute colon weight vs. vehicle,[1]; [7],no significant effect
same,Effect on colon to body weight ratio vs. vehicle,[1]; [7],no significant effect
same,Colitis severity score graded histologically (Mean ± s.e.m.),[2]; [5],4.0 ± 0.42
same,"Colitis severity score, difference from vehicle","[2]; 0.05 mg/kg s.c., p >0.05",0.3
same,Colitis severity score graded histologically (Mean ± s.e.m.),[2]; [6],3.1 ± 0.42
same,"Colitis severity score, difference from vehicle","[2]; 0.3 mg/kg s.c., p >0.05",−0.6
same,Colitis severity score graded histologically (Mean ± s.e.m.),[2]; 2 mg/kg s.c. daily for 7 days,2.4 ± 0.39
same,"Colitis severity score, difference from vehicle","[2]; 2 mg/kg s.c., p <0.05",−1.3
same,IL-8 level in homogenised colon (Mean ± s.e.m),[3]; [5],317 ± 65.7 pg/mg protein
same,IL-8 level in homogenised colon (Mean ± s.e.m),[3]; [6],264 ± 65.7 pg/mg protein
same,IL-8 level in homogenised colon (Mean ± s.e.m),[3]; 2 mg/kg s.c. daily for 7 days,220 ± 61.5 pg/mg protein
same,Effect on IL-8 levels in homogenised colons,[3]; any of the doses used,no effect
same,IFN-γ level in homogenised colon (Mean ± s.e.m),[4]; [5],177 ± 32.6 pg/mg protein
same,IFN-γ level in homogenised colon (Mean ± s.e.m),[4]; [6],169 ± 32.6 pg/mg protein
same,IFN-γ level in homogenised colon (Mean ± s.e.m),[4]; 2 mg/kg s.c. daily for 7 days,100 ± 30.5 pg/mg protein
same,Effect on IFN-γ levels in homogenised colons,[4]; any of the doses used,no effect

# — US20040219228A1, “Animal model for inflammatory bowel disease” (Pfizer Inc, priority 2003, published 2004)
